Measurements taken from patent publication US20100143250A1, “COMPOUNDS FOR THE DIAGNOSIS OF APOPTOSIS” (priority 2007, published 2010).
pIC50, pKd: −log10 of the molar value. Ends that are not written are not given here.

Assays:
[1] = test system: mouse apoptotic liver; experiment: MRI of apoptotic liver in the mouse (anti-Fas antibody induced); format: in vivo, Balb/c mice
Method: The targeting effectiveness of the Gd-DTPA-LIKKPF product by MRI was also evaluated on a model of apoptotic liver in the mouse. The apoptosis is induced by means of an i.v. injection (caudal vein) of anti-Fas monoclonal antibody in anesthetized Balb/c mice (Blankenberg et al., 1998, 1999; Rodriguez et al., 1996).
Before the MRI acquisition, the mice are anesthetized with pentobarbital. The experiments are carried out using a 200 MHz Bruker spectrometer (4.7 T) equipped with a vertical magnet and with a mini-imaging system. […] The signal intensity (SI) is measured in the liver. The SI value is also measured in a tube filled with a 2% aqueous solution of gelatin enriched with 50 μM Gd-DTPA, used as a reference product, in a region outside the image of the mouse which corresponds to the background noise. […]
For the two models, the SI values are measured in various regions of interest (at the level of the arterial wall of the abdominal aorta or whole liver) using the OSIRIS image analysis software. […] The SI value is measured on all the image slices where the arterial wall and the liver are visible. […] The % ΔSNR is calculated according to the following equation:
% ΔSNR=[(SIpost/SDnoise)−(SIpre/SDnoise)]/[SIpre/SDnoise]×100 where SDnoise is the standard deviation of the noise measured on a region outside the animal.

[2] = Annexin V competition assay for peptide LIKKPF on immobilized PS (ELISA plate); format: binding; details: interaction of peptide LIKKPF with PS, FIG. 1
Method: The affinity of the peptide LIKKPF (SEQ ID No 11) is measured on immobilized PS (ELISA plate). […] Incubation at 37° C. is sustained for 1.5 hours. The bound annexin V is detected by adding a solution of streptavidin-HRP, and then a solution of ABTS substrate containing 0.05% of H2O2. The OD405 is measured in order to calculate the IC50 value of the peptide.

[3] = Relaxivity measurements (r1, r2) in aqueous solution; format: physicochemical
Method: The relaxation times T1 and T2 were determined by standard procedures on a Minispec 120 instrument (Bruker) at 20 MHz (0.47T) and 37° C. The longitudinal relaxation time T1 is measured using an inversion-recovery sequence and the transverse relaxation time T2 is measured using a CPMG technique.
The relaxation rates R1 (=1/T1) and R2 (=1/T2) were calculated for various concentrations of total metal (ranging from 0.1×10^−3 to 1×10^−3 mol/l) in an aqueous solution at 37° C. The correlation between R1 or R2 as a function of the concentration is linear, and the slope represents the relaxivity r1 (R1/C) or r2 (R2/C) expressed as (1/second)×(1/mmol/l), i.e. (s^−1.mM^−1).

[4] = test system: dopaminergic neurons treated with MPP+; experiment: MRI detection in cell culture, healthy cells vs cells treated with MPP+; format: cell-based, rat
Method: (§1) MRI studies were carried out on C57BI/6 mice treated with MPTP (or its metabolite MPP+ for cell cultures), a neurotoxin which induces a “parkinsonien” syndrome.
In cell culture, the death of dopaminergic neurons by apoptosis was verified using rat brains, by immunohistochemistry and detection of caspase 3 enzyme activity. For the MRI detection in cell culture, the healthy cells and cells treated with MPP+ were brought into contact with USPIO-LIKKPF.

[5] = Interaction of USPIO-LIKKPF with immobilized PS, iron assayed with Prussian blue; format: binding; details: 2 hours at 37° C., read-out: K*d value
Method: The affinity of the USPIO-LIKKPF is measured on immobilized PS (120 μg/ml). After saturation of the nonspecific sites, the USPIO-LIKKPF is incubated at increasing concentrations (122 nM-4 mM with respect to iron) for 2 hours at 37° C. After washing of the wells, the molecules bound to the PS are digested in one volume of 5N HCl. The samples are digested in one volume of 5N HCl, for 48 h at 37° C., and the iron is assayed using Prussian blue (OD630).

[6] = test system: apoptotic Jurkat cells; experiment: In vitro MRI on apoptotic or control Jurkat cells preincubated with USPIO; format: cell-based
Method: The in vitro MRI is carried out on apoptotic (or control) cells preincubated with the USPIO-LIKKPF or unfunctionalized USPIO (3 or 4 mM with respect to iron) for 2 hours at 37° C. Jurkat cell apoptosis is induced by a treatment with 2 μM camptothecin for 24 hours. After incubation with the USPIO, the labeled cells are transferred into a 0.2% gelatin solution for analysis by MRI (Bruker Avance-200, 4.7 T, TR/TE=3000/20 ms, 30 echos, matrix=256×256, FOV=4 cm, slice thickness=1 mm) in ELISA plate wells.

[7] = test system: apoptotic nervous tissues; experiment: MRI of mice treated with MPTP (model of Parkinson's disease); format: in vivo; details: 4th, 5th, 6th day of treatment, one and three weeks after
Method: In a model of Parkinson's disease, with the injection of USPIO-LIKKPF product (product of example 1)
as §1
The diseased and healthy mice were studied on the 4th, 5th and 6th day of treatment, and one and three weeks after the end of the treatment with MPTP. […] The MRI localization of the diseased regions corresponds to the regions containing dopaminergic neurons (immunohistochemistry: detection of dopaminergic neurons by measuring tyrosine hydroxylase in the central gray nuclei).

[8] = Annexin V competition assay for the interaction of USPIO-LIKKPF with PS; format: binding; details: FIG. 3

O=C([O-])CN(CCN(CC(=O)[O-])CC(=O)O)CCN(CC(=O)[O-])CC(=O)O.[Gd+3] [Gd-DTPA, reference compound]
MRI signal enhancement in the healthy mouse ([1]; healthy mouse): only a partial signal enhancement

Leu-Ile-Lys-Lys-Pro-Phe-OH (LIKKPF-OH)
effect of preinjection on the enhancement caused by Gd-DTPA-LIKKPF ([1]; peptide preinjected at 100 μmol/kg, apoptotic liver): blocks the enhancement caused by the Gd-DTPA-LIKKPF

annexin V: endogenous protein of 35 kDa with high affinity and specificity for PS
pIC50 [2]: 8.97

Peptide No. 3-DTPAGd: Bz-NCS-DTPA condensed with peptide Pro-Gly-Asp-Leu-Ser-Arg-OH, complexed with gadolinium (PGDLSR; Bz-NCS-DTPA-Gd conjugate; printed: Pro-Gly-Asp-Leu-Ser-Arg-)
Relaxivities measured at 20 MHz (37° C.) [3]: 6.7 s⁻¹ mM⁻¹

USPIO-LIKKPF: USPIO-PEG-PEPTIDE P contrast product with PEPTIDE P being LIKKPF; product of example 1, PEG size not stated (also: coupled to USPIO nanoparticle via PEG linker, site not given here)
MRI signal of diseased vs healthy cells [4]: diseased cells show a darker signal than the others | uptake of contrast agent (standardized relaxation rate and iron concentration) [4]: diseased cells have taken up a larger amount of vectorized contrast agent | pKd [5]: 7.11 | binding to apoptotic cells by MRI (signal intensity vs control cells) ([6]; Jurkat cells, 2 μM camptothecin 24 hours, 3 or 4 mM iron, 2 hours at 37° C.): binds specifically to the apoptotic cells | decrease in MRI signal induced by incubation, vs unfunctionalized USPIO ([6]; apoptotic cells, 3 mM and 4 mM Fe, FIG. 4): greater than that recorded with the unfunctionalized USPIO | targeting of diseased regions by MRI [7]: more marked at the 5th day | pIC50 [8]: 6.38

Peptide No. 1-DTPAGd: Bz-NCS-DTPA condensed with peptide Asp-Ala-His-Ser-Phe-SerOH, complexed with gadolinium (DAHSFS; Bz-NCS-DTPA-Gd conjugate; printed: Asp-Ala-His-Ser-Phe-Ser)
Relaxivities measured at 20 MHz (37° C.) [3]: 6.8 s⁻¹ mM⁻¹
